Laboratory results taken from publication PMC4979471 (Cell Death Discovery, 2015).
Like-named read-outs stand apart in the source and are kept apart here.

Key:
Experiment in all cases: Kinase selectivity, P33-radiolabeled assay
Format in all cases: biochemical
Conditions in all cases: 10 μM ATP
TAK1 = target: T1, TAK1 (Homo sapiens, UniProt O43318)
T1 construct: purchased Reaction Biology Corp
T1 sequence (O43318 1-303 limits assumed): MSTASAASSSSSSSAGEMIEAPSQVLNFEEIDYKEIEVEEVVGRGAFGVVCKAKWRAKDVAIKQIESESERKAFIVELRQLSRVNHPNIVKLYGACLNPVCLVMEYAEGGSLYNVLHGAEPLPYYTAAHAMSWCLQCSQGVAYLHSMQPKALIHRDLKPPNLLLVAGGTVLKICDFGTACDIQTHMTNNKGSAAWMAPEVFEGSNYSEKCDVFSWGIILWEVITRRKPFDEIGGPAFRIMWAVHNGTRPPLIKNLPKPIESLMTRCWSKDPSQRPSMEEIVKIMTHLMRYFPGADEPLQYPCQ
T1 sequence (Q15750 437-504 partner limits assumed): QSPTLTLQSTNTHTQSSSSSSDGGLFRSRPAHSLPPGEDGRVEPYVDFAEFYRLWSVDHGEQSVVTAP
In short: (§1)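 Activity relative to DMSO controls (%) was measured for compound at 10 μM. Assays ran at 10 μM ATP, in duplicate.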

PLK2 = target: T2, PLK2 (Homo sapiens, UniProt Q9NYY3)
T2 construct: purchased Reaction Biology Corp
In short: as §1

NEK6 = target: T3, NEK6 (Homo sapiens, UniProt Q9HC98)
T3 construct: purchased Reaction Biology Corp
In short: as §1

PKCb1 = target: T4, PKCb1 (Homo sapiens, UniProt P05771)
T4 construct: purchased Reaction Biology Corp
In short: as §1

LRRK2 = target: T5, LRRK2 (Homo sapiens, UniProt Q5S007)
T5 construct: purchased Reaction Biology Corp
In short: as §1

Haspin = target: T6, Haspin (Homo sapiens, UniProt Q8TF76)
T6 construct: purchased Reaction Biology Corp
T6 sequence (Q8TF76 1-798): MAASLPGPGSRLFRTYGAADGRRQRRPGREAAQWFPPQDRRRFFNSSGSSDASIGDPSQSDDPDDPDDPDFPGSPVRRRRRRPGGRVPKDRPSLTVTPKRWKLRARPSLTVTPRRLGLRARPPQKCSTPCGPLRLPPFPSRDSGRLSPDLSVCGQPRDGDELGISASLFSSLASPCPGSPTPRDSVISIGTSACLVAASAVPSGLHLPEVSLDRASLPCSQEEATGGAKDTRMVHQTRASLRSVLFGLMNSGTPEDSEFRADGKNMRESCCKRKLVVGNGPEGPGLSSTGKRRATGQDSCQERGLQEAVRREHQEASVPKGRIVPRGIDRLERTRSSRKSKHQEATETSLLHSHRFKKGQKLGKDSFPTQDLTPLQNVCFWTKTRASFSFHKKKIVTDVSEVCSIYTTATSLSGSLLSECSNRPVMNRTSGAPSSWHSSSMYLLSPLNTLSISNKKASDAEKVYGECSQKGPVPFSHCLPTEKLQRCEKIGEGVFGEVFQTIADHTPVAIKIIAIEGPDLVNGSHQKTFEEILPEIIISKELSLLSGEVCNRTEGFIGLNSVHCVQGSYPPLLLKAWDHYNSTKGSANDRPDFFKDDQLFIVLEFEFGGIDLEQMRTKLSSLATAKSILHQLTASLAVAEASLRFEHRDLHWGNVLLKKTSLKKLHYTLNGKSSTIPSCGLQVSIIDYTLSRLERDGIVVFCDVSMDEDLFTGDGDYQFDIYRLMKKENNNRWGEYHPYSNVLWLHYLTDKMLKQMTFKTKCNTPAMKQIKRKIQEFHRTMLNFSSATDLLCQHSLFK
In short: as §1

GRK2 = target: T7, GRK2 (Homo sapiens, UniProt P25098)
T7 construct: purchased Reaction Biology Corp
T7 sequence (P25098 1-689): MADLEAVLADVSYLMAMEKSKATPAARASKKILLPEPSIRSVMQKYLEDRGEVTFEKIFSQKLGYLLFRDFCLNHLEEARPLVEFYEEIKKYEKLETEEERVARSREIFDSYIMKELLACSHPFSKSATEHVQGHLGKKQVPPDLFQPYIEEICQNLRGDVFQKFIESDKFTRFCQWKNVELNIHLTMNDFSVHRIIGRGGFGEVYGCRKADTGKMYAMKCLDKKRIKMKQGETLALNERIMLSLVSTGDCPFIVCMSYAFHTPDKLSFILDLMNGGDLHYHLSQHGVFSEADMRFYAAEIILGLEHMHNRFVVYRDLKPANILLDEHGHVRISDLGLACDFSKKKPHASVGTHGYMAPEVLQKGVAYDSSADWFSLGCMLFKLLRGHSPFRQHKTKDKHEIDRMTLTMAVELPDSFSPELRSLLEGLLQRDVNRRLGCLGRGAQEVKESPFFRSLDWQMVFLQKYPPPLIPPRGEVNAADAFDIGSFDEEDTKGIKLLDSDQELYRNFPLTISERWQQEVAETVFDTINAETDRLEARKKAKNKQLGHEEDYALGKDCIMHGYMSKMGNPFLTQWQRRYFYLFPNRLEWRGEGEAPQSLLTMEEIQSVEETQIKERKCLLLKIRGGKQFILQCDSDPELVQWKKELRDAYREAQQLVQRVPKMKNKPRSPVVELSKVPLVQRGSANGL
In short: as §1

BTK = target: T8, BTK (Homo sapiens, UniProt Q06187)
T8 construct: purchased Reaction Biology Corp
In short: as §1

c-Src = target: T9, c-Src (Homo sapiens, UniProt P12931)
T9 construct: purchased Reaction Biology Corp
In short: as §1

[1] = read-out: % Enzyme Activity (relative to DMSO controls) AVG
[2] = read-out: % Enzyme Activity (relative to DMSO controls) Data 1
[3] = read-out: % Enzyme Activity (relative to DMSO controls) Data 2

T4 sequence (P05771 whole entry): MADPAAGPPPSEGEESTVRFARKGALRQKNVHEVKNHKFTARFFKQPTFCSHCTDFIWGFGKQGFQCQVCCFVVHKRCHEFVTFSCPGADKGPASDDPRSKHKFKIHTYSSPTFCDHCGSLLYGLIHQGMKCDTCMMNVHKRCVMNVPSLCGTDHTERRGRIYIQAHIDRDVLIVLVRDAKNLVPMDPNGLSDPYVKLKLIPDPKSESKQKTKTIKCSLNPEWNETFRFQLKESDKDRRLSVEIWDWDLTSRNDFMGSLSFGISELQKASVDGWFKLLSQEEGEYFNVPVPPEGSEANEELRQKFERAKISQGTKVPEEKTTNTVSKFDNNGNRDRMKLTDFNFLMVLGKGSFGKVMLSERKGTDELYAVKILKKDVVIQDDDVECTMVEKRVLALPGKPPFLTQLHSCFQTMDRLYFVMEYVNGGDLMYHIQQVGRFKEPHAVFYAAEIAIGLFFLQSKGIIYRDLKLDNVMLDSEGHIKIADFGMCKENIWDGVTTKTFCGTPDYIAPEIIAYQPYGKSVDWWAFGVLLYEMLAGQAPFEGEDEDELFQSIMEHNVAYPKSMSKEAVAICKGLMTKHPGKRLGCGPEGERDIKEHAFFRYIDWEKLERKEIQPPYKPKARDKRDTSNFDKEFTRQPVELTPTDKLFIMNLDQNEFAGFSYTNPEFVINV
T9 sequence (P12931 whole entry): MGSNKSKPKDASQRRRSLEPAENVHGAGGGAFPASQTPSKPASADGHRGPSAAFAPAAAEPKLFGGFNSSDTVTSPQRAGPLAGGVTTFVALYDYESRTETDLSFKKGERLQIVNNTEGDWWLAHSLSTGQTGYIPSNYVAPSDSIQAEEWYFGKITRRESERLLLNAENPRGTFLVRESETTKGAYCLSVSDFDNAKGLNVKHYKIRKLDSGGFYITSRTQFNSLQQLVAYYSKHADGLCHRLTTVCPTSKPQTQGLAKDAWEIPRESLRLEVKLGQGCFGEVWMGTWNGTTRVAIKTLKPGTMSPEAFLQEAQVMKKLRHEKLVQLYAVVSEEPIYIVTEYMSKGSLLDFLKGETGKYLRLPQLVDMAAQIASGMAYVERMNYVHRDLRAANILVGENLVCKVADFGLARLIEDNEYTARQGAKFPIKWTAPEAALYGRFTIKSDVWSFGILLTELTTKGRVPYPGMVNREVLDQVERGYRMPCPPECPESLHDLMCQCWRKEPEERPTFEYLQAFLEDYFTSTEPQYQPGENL
T5 sequence (Q5S007 whole entry): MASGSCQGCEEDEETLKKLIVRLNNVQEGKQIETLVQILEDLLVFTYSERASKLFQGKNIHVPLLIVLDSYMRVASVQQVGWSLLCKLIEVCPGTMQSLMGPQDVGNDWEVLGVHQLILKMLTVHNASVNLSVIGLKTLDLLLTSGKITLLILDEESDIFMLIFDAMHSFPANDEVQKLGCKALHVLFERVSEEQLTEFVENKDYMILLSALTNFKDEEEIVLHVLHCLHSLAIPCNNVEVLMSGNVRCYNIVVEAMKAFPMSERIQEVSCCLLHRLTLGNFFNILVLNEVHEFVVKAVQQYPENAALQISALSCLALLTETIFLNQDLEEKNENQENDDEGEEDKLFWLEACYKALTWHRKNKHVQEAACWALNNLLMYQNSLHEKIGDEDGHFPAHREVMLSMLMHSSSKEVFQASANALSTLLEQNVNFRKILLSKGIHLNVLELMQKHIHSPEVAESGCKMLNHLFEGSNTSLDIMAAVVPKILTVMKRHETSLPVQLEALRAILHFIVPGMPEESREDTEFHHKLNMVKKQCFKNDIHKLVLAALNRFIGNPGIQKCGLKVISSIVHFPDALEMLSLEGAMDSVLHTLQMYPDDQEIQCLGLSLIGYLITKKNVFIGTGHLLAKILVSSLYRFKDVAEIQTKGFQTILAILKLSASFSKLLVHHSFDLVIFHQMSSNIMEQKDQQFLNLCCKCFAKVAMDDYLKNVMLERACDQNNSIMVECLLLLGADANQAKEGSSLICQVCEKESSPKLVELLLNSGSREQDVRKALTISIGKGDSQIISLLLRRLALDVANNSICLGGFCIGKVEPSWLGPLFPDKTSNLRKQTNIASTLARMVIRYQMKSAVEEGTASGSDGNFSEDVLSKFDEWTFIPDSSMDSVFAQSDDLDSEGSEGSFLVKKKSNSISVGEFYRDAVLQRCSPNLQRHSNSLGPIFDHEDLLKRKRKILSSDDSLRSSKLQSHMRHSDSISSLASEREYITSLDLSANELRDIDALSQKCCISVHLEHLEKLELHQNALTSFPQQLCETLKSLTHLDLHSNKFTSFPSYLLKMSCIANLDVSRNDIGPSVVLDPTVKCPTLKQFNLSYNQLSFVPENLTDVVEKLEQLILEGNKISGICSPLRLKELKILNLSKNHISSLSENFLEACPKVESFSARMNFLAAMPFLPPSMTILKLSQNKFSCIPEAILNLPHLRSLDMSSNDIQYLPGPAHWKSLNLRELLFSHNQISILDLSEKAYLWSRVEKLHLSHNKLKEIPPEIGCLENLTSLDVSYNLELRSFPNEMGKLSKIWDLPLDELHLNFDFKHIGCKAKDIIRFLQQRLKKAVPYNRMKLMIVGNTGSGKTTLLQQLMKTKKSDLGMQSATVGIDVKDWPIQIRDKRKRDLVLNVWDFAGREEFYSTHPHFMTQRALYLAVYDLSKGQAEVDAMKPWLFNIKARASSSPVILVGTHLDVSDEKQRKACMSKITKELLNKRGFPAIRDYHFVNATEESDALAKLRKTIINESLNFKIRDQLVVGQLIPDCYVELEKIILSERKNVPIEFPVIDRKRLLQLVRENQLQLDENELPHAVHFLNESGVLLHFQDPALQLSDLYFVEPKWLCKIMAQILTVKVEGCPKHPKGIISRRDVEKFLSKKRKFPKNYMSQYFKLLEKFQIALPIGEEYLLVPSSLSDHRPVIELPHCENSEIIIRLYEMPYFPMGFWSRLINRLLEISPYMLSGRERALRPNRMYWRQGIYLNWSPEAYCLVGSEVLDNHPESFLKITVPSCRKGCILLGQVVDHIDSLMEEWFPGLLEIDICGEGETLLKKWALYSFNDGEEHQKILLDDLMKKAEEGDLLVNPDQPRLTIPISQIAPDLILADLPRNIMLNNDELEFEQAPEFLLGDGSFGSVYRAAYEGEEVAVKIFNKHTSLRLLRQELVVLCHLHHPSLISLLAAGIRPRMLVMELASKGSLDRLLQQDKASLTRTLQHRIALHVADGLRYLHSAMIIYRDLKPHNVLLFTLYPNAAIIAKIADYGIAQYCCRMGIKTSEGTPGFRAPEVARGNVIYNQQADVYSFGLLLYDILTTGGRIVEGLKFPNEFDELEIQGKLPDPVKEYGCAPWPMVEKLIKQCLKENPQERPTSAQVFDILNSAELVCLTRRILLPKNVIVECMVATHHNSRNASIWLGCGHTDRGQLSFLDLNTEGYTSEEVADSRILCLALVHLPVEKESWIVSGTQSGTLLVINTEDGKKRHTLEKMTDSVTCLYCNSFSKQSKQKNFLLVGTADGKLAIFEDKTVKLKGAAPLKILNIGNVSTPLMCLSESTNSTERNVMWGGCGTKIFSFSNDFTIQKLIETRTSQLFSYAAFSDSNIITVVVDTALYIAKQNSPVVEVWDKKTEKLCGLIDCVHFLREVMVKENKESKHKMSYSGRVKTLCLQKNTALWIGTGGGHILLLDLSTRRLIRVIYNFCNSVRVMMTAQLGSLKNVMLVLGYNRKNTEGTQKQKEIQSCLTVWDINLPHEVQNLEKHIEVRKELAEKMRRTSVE
T2 sequence (Q9NYY3 whole entry): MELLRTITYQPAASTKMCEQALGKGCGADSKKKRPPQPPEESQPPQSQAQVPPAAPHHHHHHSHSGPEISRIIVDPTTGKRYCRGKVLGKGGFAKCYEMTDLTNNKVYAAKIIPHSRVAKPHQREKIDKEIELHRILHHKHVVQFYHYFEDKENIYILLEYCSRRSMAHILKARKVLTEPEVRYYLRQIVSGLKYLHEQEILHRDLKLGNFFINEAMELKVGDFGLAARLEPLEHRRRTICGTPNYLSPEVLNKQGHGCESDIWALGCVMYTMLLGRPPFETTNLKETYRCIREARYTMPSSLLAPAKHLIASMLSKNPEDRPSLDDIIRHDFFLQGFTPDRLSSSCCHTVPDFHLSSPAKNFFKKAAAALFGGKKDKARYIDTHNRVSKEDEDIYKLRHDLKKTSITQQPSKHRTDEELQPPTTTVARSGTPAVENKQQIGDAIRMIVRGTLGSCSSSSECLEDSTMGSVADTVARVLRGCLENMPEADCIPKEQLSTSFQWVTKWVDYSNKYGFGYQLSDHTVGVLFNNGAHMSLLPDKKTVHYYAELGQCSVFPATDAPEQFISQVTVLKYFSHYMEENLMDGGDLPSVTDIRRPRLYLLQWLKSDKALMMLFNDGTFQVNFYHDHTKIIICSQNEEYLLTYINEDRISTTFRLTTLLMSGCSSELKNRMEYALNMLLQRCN
T8 sequence (Q06187 whole entry): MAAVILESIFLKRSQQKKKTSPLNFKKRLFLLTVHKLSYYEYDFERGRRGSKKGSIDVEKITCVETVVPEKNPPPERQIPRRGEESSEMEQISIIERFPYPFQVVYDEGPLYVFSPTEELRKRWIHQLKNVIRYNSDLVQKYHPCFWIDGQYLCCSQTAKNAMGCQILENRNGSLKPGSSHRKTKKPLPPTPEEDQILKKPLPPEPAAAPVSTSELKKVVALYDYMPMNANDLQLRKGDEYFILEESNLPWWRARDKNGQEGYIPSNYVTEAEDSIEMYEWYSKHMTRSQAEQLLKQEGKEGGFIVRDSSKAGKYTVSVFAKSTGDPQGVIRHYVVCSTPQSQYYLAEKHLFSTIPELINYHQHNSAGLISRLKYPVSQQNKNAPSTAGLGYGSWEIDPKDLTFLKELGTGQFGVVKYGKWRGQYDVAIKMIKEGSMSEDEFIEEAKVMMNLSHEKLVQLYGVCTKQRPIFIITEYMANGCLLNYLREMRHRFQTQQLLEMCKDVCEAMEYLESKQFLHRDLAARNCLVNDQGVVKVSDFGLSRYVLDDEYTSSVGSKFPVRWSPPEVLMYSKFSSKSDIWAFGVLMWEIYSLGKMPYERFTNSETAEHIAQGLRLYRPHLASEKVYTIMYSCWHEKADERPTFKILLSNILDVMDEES

CC(C)(C)C(=O)N1N=CC[C@H]1c1ccccc1 [GSK′963]
remaining activity at 10 µM (TAK1; [1]): 98.8%
remaining activity at 10 µM (TAK1; [2]): 99.7%
remaining activity at 10 µM (TAK1; [3]): 97.9%
remaining activity at 10 µM (PLK2; [1]): 110%
remaining activity at 10 µM (PLK2; [2]): 108%
remaining activity at 10 µM (PLK2; [3]): 111%
remaining activity at 10 µM (NEK6; [1]): 97.9%
remaining activity at 10 µM (NEK6; [2]): 100%
remaining activity at 10 µM (NEK6; [3]): 95.5%
remaining activity at 10 µM (PKCb1; [1]): 97.8%
remaining activity at 10 µM (PKCb1; [2]): 96.7%
remaining activity at 10 µM (PKCb1; [3]): 98.9%
remaining activity at 10 µM (LRRK2; [1]): 99.5%
remaining activity at 10 µM (LRRK2; [2]): 102%
remaining activity at 10 µM (LRRK2; [3]): 97.1%
remaining activity at 10 µM (Haspin; [1]): 96.7%
remaining activity at 10 µM (Haspin; [2]): 97.3%
remaining activity at 10 µM (Haspin; [3]): 96.2%
remaining activity at 10 µM (GRK2; [1]): 95.7%
remaining activity at 10 µM (GRK2; [2]): 99.5%
remaining activity at 10 µM (GRK2; [3]): 91.8%
remaining activity at 10 µM (BTK; [1]): 95.6%
remaining activity at 10 µM (BTK; [2]): 95%
remaining activity at 10 µM (BTK; [3]): 96.1%
remaining activity at 10 µM (c-Src; [1]): 109%
remaining activity at 10 µM (c-Src; [2]): 112%
remaining activity at 10 µM (c-Src; [3]): 106%
